Laboratory results taken from EP4635950A1, “NOVEL CRYSTAL FORM OF GLP-1 RECEPTOR AGONIST, METHOD FOR PREPARING SAME, PHARMACEUTICAL COMPOSITION THEREOF, AND USE THEREOF” (Hangzhou Zhongmeihuadong Pharmaceutical Co., Ltd., priority 2022, dated 2024).
In brackets after ≈: the same amount, converted by molar mass. Entries after “also recorded” stand apart in the source; their conditions may differ. Read-outs that look alike come from different tables or passages of the source. Each block holds one molecule with its values, some of them ahead of it.

Key:
Type in all cases: physicochemical
[1] = Equilibrium solubility, 24 hours at 37°C in 4 media, with XRPD of residual solid; settings: for solubility at 24 h: 37 °C, thermodynamic from solid, read-out: Solubility after 24 h; for Crystal Form: XRPD
Procedure: After 24 hours, samples were taken and centrifuged for separation. The obtained solids were tested by XRPD, and the supernatants were filtered for solubility testing.

[2] = Hygroscopicity by dynamic vapor sorption (DVS) at 25°C
[3] = Solid-state stability under long-term and accelerated conditions (HPLC purity, crystal form); settings: for Purity (% Area) / purity decrease: 10 days
Source text: [table] […] Table E-3: Results of Solid-State Stability Determination

[4] = High-temperature stability at 60°C (HPLC purity, crystal form); settings: for Purity (% Area) / purity decrease: 60°C
Source text: [table] […] Table E-4: Results of High-Temperature Stability Determination

[5] = High-humidity stability at 90% RH (HPLC purity, crystal form); settings: for Purity (% Area) / purity decrease: 90% RH
Source text: [table] […] Table E-5: Results of High-Humidity Stability Determination

[6] = Pressure stability at 1000 Mpa for 5 minutes (HPLC purity, crystal form)
Source text: [table] […] Table E-6: Results of Pressure Stability Determination

[7] = Crystal form stability on drying or sealed storage
Source text: The 4 metastable crystal forms described in Example 4 had lower crystal form stability than each crystal form described in Example 3.

[8] = Suspension competition test of Crystal Form A and Crystal Form G; settings: Crystal Form A and Crystal Form G in EtOH and a mixture of MeOH and water, room temperature and 50°C
[9] = Crystal form change on heating in the DSC test
[10] = heated to 120 °C for 10 minutes

SMILES: O=C(O)c1ccc2nc(CN3CCC(c4cccc(OCc5ccc(C6COC6)cc5F)n4)CC3)n(C[C@@H]3CCO3)c2c1 [Crystal Form A, (S)-2-((4-(6-((2-fluoro-4-(oxetan-3-yl)benzyl)oxy)pyridin-2-yl)piperidin-1-yl)methyl)-1-(oxetan-2-ylmethyl)-1H-benzo[d]imidazole-6-carboxylic acid]
Whether the Crystal Form Changed ([1]; 24 h in FaSSGF): YES
Solubility after 24 h ([1]; FaSSGF): 200 µg/mL (≈ 341 µM)
solubility at 24 h ([1]; FaSSIF (fasted-state simulated intestinal fluid), fassif, FaSSIF): 50 µg/mL (≈ 85.2 µM)
solubility at 24 h ([1]; FeSSIF (fed-state simulated intestinal fluid), fessif, FeSSIF): 320 µg/mL (≈ 545 µM)
solubility at 24 h ([1]; purified water, water, H2O): < 100 µg/mL
Crystal Form ([1]; solid after 24 h in FaSSGF): a hydrochloride salt was formed
Crystal Form ([1]; solid after 24 h in FaSSIF): Crystal Form A
Crystal Form ([1]; solid after 24 h in FeSSIF): Crystal Form A
Crystal Form ([1]; solid after 24 h in H2O): Crystal Form A
Sample Weight Change at 80% RH (%) [2]: 0.89%
Purity (% Area) ([3]; 25°C/60%RH): 97.50 % Area
Purity (% Area) ([3]; 40°C/75%RH): 97.33 % Area
purity decrease ([3]; accelerated conditions (40°C/75% RH)): about 0.8%
crystal form change ([3]; before and after testing, long-term and accelerated conditions): no crystal form change was observed
Initial Purity (% Area) ([3]; initial, before storage): 98.11 % Area
purity decrease ([3]; long-term conditions (25°C/60% RH)): about 0.6%
Purity (% Area) ([4]; 1 day): 98.00 % Area
purity decrease ([4]; 1 day): about 0.1%
Purity (% Area) ([4]; 10 days): 96.98 % Area
purity decrease ([4]; 10 days): about 1.1%
Initial Purity (% Area) ([4]; initial, before storage): 98.11 % Area
Purity (% Area) ([5]; 1 Day): 97.77 % Area
purity decrease ([5]; 1 day): about 0.3%
Purity (% Area) ([5]; 10 days): 97.07 % Area
purity decrease ([5]; 10 days): about 1.0%
Initial Purity (% Area) ([5]; initial, before storage): 98.11 % Area
Purity (% Area) ([6]; 1000 Mpa, 5 min): 97.44 % Area
purity decrease ([6]; 1000 Mpa, 5 min): about 0.7%
Initial Purity (% Area) ([6]; initial, before pressing): 98.11 % Area
crystal form change after drying ([7]; dried at 50°C for 3 hours): no crystal form change is observed
outcome of suspension competition test [8]: transforms into Crystal Form G

SMILES: O=C(O)c1ccc2nc(CN3CCC(c4cccc(OCc5ccc(C6COC6)cc5F)n4)CC3)n(C[C@@H]3CCO3)c2c1 [Crystal Form B, (S)-2-((4-(6-((2-fluoro-4-(oxetan-3-yl)benzyl)oxy)pyridin-2-yl)piperidin-1-yl)methyl)-1-(oxetan-2-ylmethyl)-1H-benzo[d]imidazole-6-carboxylic acid]
crystal form change after drying ([7]; dried at 50°C for 3 hours): transforms into an amorphous form; also recorded: convert into an amorphous form

SMILES: O=C(O)c1ccc2nc(CN3CCC(c4cccc(OCc5ccc(C6COC6)cc5F)n4)CC3)n(C[C@@H]3CCO3)c2c1 [Crystal Form C, (S)-2-((4-(6-((2-fluoro-4-(oxetan-3-yl)benzyl)oxy)pyridin-2-yl)piperidin-1-yl)methyl)-1-(oxetan-2-ylmethyl)-1H-benzo[d]imidazole-6-carboxylic acid]
crystal form change on heating ([9]; heated to 110°C for 5 minutes): transforms into an amorphous form

SMILES: O=C(O)c1ccc2nc(CN3CCC(c4cccc(OCc5ccc(C6COC6)cc5F)n4)CC3)n(C[C@@H]3CCO3)c2c1 [Crystal Form D, (S)-2-((4-(6-((2-fluoro-4-(oxetan-3-yl)benzyl)oxy)pyridin-2-yl)piperidin-1-yl)methyl)-1-(oxetan-2-ylmethyl)-1H-benzo[d]imidazole-6-carboxylic acid]
crystal form change on heating [9, 10]: converts into an amorphous form

SMILES: O=C(O)c1ccc2nc(CN3CCC(c4cccc(OCc5ccc(C6COC6)cc5F)n4)CC3)n(C[C@@H]3CCO3)c2c1 [Crystal Form E, (S)-2-((4-(6-((2-fluoro-4-(oxetan-3-yl)benzyl)oxy)pyridin-2-yl)piperidin-1-yl)methyl)-1-(oxetan-2-ylmethyl)-1H-benzo[d]imidazole-6-carboxylic acid]
crystal form change on heating [9, 10]: converts into an amorphous form

SMILES: O=C(O)c1ccc2nc(CN3CCC(c4cccc(OCc5ccc(C6COC6)cc5F)n4)CC3)n(C[C@@H]3CCO3)c2c1 [Crystal Form F, (S)-2-((4-(6-((2-fluoro-4-(oxetan-3-yl)benzyl)oxy)pyridin-2-yl)piperidin-1-yl)methyl)-1-(oxetan-2-ylmethyl)-1H-benzo[d]imidazole-6-carboxylic acid]
crystal form change after storage ([7]; sealed conditions at room temperature for 21 days): transforms into Crystal Form D; also recorded: transformed into stable Crystal Form D

SMILES: O=C(O)c1ccc2nc(CN3CCC(c4cccc(OCc5ccc(C6COC6)cc5F)n4)CC3)n(C[C@@H]3CCO3)c2c1 [Crystal Form H, (S)-2-((4-(6-((2-fluoro-4-(oxetan-3-yl)benzyl)oxy)pyridin-2-yl)piperidin-1-yl)methyl)-1-(oxetan-2-ylmethyl)-1H-benzo[d]imidazole-6-carboxylic acid]
crystal form change after drying ([7]; dried at 50°C for 2 hours): transforms into a weakly crystalline state; also recorded: showed a weak crystalline state

SMILES: O=C(O)c1ccc2nc(CN3CCC(c4cccc(OCc5ccc(C6COC6)cc5F)n4)CC3)n(C[C@@H]3CCO3)c2c1 [Crystal Form P, (S)-2-((4-(6-((2-fluoro-4-(oxetan-3-yl)benzyl)oxy)pyridin-2-yl)piperidin-1-yl)methyl)-1-(oxetan-2-ylmethyl)-1H-benzo[d]imidazole-6-carboxylic acid]
crystal form change after drying ([7]; dried at 50°C for 3.5 hours): transforms into an amorphous form; also recorded: convert into an amorphous form

Second part, the molecule after the results:

crystal form change on heating [9, 10]: converts into an amorphous form
SMILES: O=C(O)c1ccc2nc(CN3CCC(c4cccc(OCc5ccc(C6COC6)cc5F)n4)CC3)n(C[C@@H]3CCO3)c2c1 [Crystal Form Ix, (S)-2-((4-(6-((2-fluoro-4-(oxetan-3-yl)benzyl)oxy)pyridin-2-yl)piperidin-1-yl)methyl)-1-(oxetan-2-ylmethyl)-1H-benzo[d]imidazole-6-carboxylic acid]

crystal form change on heating [9, 10]: transforms into an amorphous form
SMILES: O=C(O)c1ccc2nc(CN3CCC(c4cccc(OCc5ccc(C6COC6)cc5F)n4)CC3)n(C[C@@H]3CCO3)c2c1 [Crystal Form J, (S)-2-((4-(6-((2-fluoro-4-(oxetan-3-yl)benzyl)oxy)pyridin-2-yl)piperidin-1-yl)methyl)-1-(oxetan-2-ylmethyl)-1H-benzo[d]imidazole-6-carboxylic acid]

crystal form change on heating ([9]; heated to 110 °C for 10 minutes): transforms into an amorphous form
SMILES: O=C(O)c1ccc2nc(CN3CCC(c4cccc(OCc5ccc(C6COC6)cc5F)n4)CC3)n(C[C@@H]3CCO3)c2c1 [Crystal Form K, (S)-2-((4-(6-((2-fluoro-4-(oxetan-3-yl)benzyl)oxy)pyridin-2-yl)piperidin-1-yl)methyl)-1-(oxetan-2-ylmethyl)-1H-benzo[d]imidazole-6-carboxylic acid]

crystal form change on heating [9, 10]: transforms into an amorphous form
SMILES: O=C(O)c1ccc2nc(CN3CCC(c4cccc(OCc5ccc(C6COC6)cc5F)n4)CC3)n(C[C@@H]3CCO3)c2c1 [Crystal Form L, (S)-2-((4-(6-((2-fluoro-4-(oxetan-3-yl)benzyl)oxy)pyridin-2-yl)piperidin-1-yl)methyl)-1-(oxetan-2-ylmethyl)-1H-benzo[d]imidazole-6-carboxylic acid]

crystal form change on heating ([9]; heated to 105 °C for 10 minutes): transforms into an amorphous form
SMILES: O=C(O)c1ccc2nc(CN3CCC(c4cccc(OCc5ccc(C6COC6)cc5F)n4)CC3)n(C[C@@H]3CCO3)c2c1 [Crystal Form M, (S)-2-((4-(6-((2-fluoro-4-(oxetan-3-yl)benzyl)oxy)pyridin-2-yl)piperidin-1-yl)methyl)-1-(oxetan-2-ylmethyl)-1H-benzo[d]imidazole-6-carboxylic acid]

crystal form change on heating [9, 10]: transforms into an amorphous form
SMILES: O=C(O)c1ccc2nc(CN3CCC(c4cccc(OCc5ccc(C6COC6)cc5F)n4)CC3)n(C[C@@H]3CCO3)c2c1 [Crystal Form N, (S)-2-((4-(6-((2-fluoro-4-(oxetan-3-yl)benzyl)oxy)pyridin-2-yl)piperidin-1-yl)methyl)-1-(oxetan-2-ylmethyl)-1H-benzo[d]imidazole-6-carboxylic acid]

crystal form change on heating [9, 10]: transforms into an amorphous form
SMILES: O=C(O)c1ccc2nc(CN3CCC(c4cccc(OCc5ccc(C6COC6)cc5F)n4)CC3)n(C[C@@H]3CCO3)c2c1 [Crystal Form O, (S)-2-((4-(6-((2-fluoro-4-(oxetan-3-yl)benzyl)oxy)pyridin-2-yl)piperidin-1-yl)methyl)-1-(oxetan-2-ylmethyl)-1H-benzo[d]imidazole-6-carboxylic acid]
